Data on four substances can be found in patent US10059742B2, “Peptides and methods and uses thereof for preventing retinal disorders” (priority 2012, dated 2018).

Format in all cases: in vivo, rat
Experiment [1] deals with middle cerebral artery occlusion (MCAO) in adult rats. In words: Thromboembolic middle cerebral artery occlusion (MCAO): brain infarct volume (TTC staining). The conditions noted are these: Arginine 9-mer-conjugated peptides; intravenous (tail-vein) 1 mg/kg; 48 hours after MCAO; relative to control. The method, then: (§1) In order to examine the effects of the peptide therapeutics described herein, a thromboembolic model of middle cerebral artery occlusion that closely mimics human ischemic brain stroke was used: a clotted segment of blood is injected into the origin of the middle cerebral artery to block blood flow in the corresponding vascular territory of the lateral cerebrum (Wang, Yang et al. 2001).
(§2) Following deep isoflurane anesthesia via a nose-cone, fur was shaved from the ventral aspect of the neck. The shaved skin was cleaned twice with alternating applications of Proviodine (iodine detergent solution) and 70% ethanol. Following a final application of Proviodine, the surgical field was draped and a midline incision made in the ventral skin and fascia of the neck. Under an operating microscope, the right common carotid artery (CCA), the right external carotid artery […], and the right internal carotid artery […] were carefully isolated and separated from the adjacent vagus nerve. A 6-0 silk suture was loosely tied at the origin of the ECA, and another suture was used to ligate the ECA distally. A sterile modified PE 10 catheter was introduced into the lumen of the right ECA via a small puncture. Ten microliters of blood was withdrawn into the catheter and retained for 15 minutes to allow formation of a clot. The fresh autologous pre-formed clot was used for MCA occlusion. The right CCA and the right ICA were temporarily clamped using microvascular clips. The PE 50 catheter containing a 20 mm long fibrin rich clot was attached to 100 μl Hamilton syringe and introduced into the lumen of the external carotid artery via a small incision. The suture around the origin of the external carotid artery was tightened around the intraluminal catheter to prevent bleeding, and the microvascular clip on the internal carotid artery was removed. The catheter was gently advanced from the ECA into the lumen of the ICA and upwards to the origin of the middle cerebral artery (a total of 17 mm in distance from the bifurcation of the CCA). At this point, the end of the catheter is 1-2 mm away from the origin of the middle cerebral artery. Over 10 seconds, the clot (3.5 μl volume) was gently injected together with 5 μl of sterile saline within the catheter. The catheter was removed 5 minutes after injection, and the right ECA was ligated at its origin. […]
(§3) 48 hours after MCA occlusion isoflurane anesthetized rats were euthanized by decapitation. […] Infarct volumes were calculated from scanned images of the coronal surfaces of brain slices, using the following formula: Infarct volume=(volume of uninjured hemisphere−(volume of injured hemisphere−measured infarct volume))/volume of uninjured hemisphere)×100. […]

Experiment [2] concerns axotomized retinal ganglion cells (RGCs). The experiment can be described thus: Optic nerve transection (axotomy): RGC survival at 14 days. The procedure: Optic nerve transection was performed as previously described (Koeberle and Ball 1998; Koeberle and Bahr 2008; Koeberle, Wang et al. 2010; Magharious, D'Onofrio et al. 2011; Magharious, D'Onofrio et al. 2011; Monnier, D'Onofrio et al. 2011). Animals were placed in a stereotaxic frame and anesthetized with Isoflurane (2%; 0.8 L/min oxygen flow rate) delivered through a gas anesthesia mask. Lidocaine eye drops were used to anesthetize the cornea and ophthalmic eye ointment was applied to the cornea to prevent desiccation during surgery. […] In order to allow access to the optic nerve and surrounding dura mater sheath, the eye was rotated laterally by applying traction to the extraocular muscles. The dural sheath surrounding the optic nerve was cut longitudinally, to avoid damaging blood vessels supplying the retina. The optic nerve was gently lifted from the meningeal sheath and transected within 2 mm of the back of the eye. In order to retrogradely label RGCs, gelfoam soaked in 2% Fluorogold (Sigma) was placed over the transected optic nerve stump. The orbital contents were returned to their original location and the initial incision was closed. The optic nerve crush procedure was performed using a similar approach; however, the optic nerve was crushed using fine self-closing forceps for 6 seconds as previously described (Magharious, D'Onofrio et al. 2011; Monnier, D'Onofrio et al. 2011). The orbital contents were then similarly returned to their original location and the initial incision was closed. Following surgery, rats were placed in a recovery cage under a heat lamp and given Ketoprofen to ease post-surgical recovery.
The procedures for intraocular and optic nerve injections have been previously described (Koeberle and Ball 1998; Koeberle and Bahr 2008; Koeberle, Wang et al. 2010; Magharious, D'Onofrio et al. 2011; Magharious, D'Onofrio et al. 2011; Monnier, D'Onofrio et al. 2011). Animals received intraocular injections of each peptide at 3 and 8 days postaxotomy, prior to the onset of RGC apoptosis which occurs at 4-5 days after axotomy. Animals were placed in a stereotaxic frame and anesthetized with isoflurane, delivered through a gas anesthetic mask. The cornea was anesthetized using Alcaine eye drops (Alcon) prior to intraocular injections. A pulled glass micropipette attached to a 10 μl Hamilton syringe via a hydraulic coupling through PEEK tubing was used to deliver 4 μl of a peptide solution (10 mg/ml) into the vitreous chamber of the eye, posterior to the limbus. Care was taken to prevent damage to the lens or anterior structures of the eye. The pipette was held in place for 5 seconds after injection and slowly withdrawn from the eye to prevent reflux. Injections were performed using a surgical microscope in order to visualize pipette entry into the vitreous chamber and confirm delivery of the injected solution.
To directly target RGCs, peptide solutions were injected into the transected optic nerve stump using a 10 microliter Hamilton syringe. A total of 5 microliters of peptide suspension (10 mg/ml) were injected. The majority of the injected fluid will reflux out of the optic nerve during this procedure, so the remaining pool of peptide suspension is left in place when returning the orbital contents to their original positions.
For intraperitoneal injections, 1 ml of saline containing 0.5 mg of dissolved peptide was delivered via a 25 gauge needle attached to a 5 ml syringe, following rapid anesthesia with isoflurane to incapacitate the animal.
For eye drop application of C-terminal peptides, animals were sedated with isoflurane and placed in a stereotaxic frame, in order to reduce the blink reflex. Twenty-five microliters of a peptide suspension (1 mg/ml) was delivered to the surface of the cornea using a micropipetter with a sterile micropipette tip. Eye drops were delivered once per day, on day 1, 2, 3, 4, 5, 6, and day 7 after axotomy. […]

Experiment [3] concerns middle cerebral artery occlusion (MCAO) in adult rats. In words: MCAO: neurological deficits (modified Bederson scoring system). As to conditions: Arginine 9-mer-conjugated peptides; intravenous 1 mg/kg; scored 8, 24 and 48 hours after MCAO; relative to control. The method, then: as §1
as §2, with “origin. Body temperature was maintained at 37° C. with a heating pad for the duration of surgery, after which the surgical field was closed with 4-0 silk sutures. Subcutaneous injections of Buprenorphine (0.05 mg/kg) were administered to minimize post-surgical discomfort.” for “origin.”
Neurological deficits were recorded at 8, 24 and 48 hours after ischemic injury. Neurological deficits were determined using a modified Bederson scoring system. […]

Experiment [4] shares this test system. In words: MCAO: brain edema of the injured hemisphere. As to conditions: Arginine 9-mer-conjugated peptides; intravenous 1 mg/kg; 48 hours after MCAO; relative to control. The method, then: as §1
Following deep isoflurane anesthesia via a nose-cone, fur was shaved from the ventral aspect of the neck. The shaved skin was cleaned twice with alternating applications of Proviodine (iodine detergent solution) and 70% ethanol. Following a final application of Proviodine, the surgical field was draped and a midline incision made in the ventral skin and fascia of the neck. Under an operating microscope, the right common carotid artery (CCA), the right external carotid artery […], and the right internal carotid artery […] were carefully isolated and separated from the adjacent vagus nerve. […]
as §3

The mark [5] stands for this setting: Arginine 9-mer (R9)-conjugated peptides, eye drops (1 mg/ml, 25 microliters) once per day, days 1-7 after axotomy, 14 days after axotomy.

Ends that are not written are not given here.

On to “PTEN: R9 (RRRRRRRRR)-conjugated rat PTEN phosphatase C-terminal peptide DQHSQITKV (SEQ ID NO:1) (RRRRRRRRRDQHSQITKV)”, for which, in experiment [1], the brain infarct volume entry is listed as “significantly reduced”. For the same substance, in experiment [2] (setting [5]), the “RGC survival relative to control” value is reported as “significantly enhanced RGC survival”. Further, the “neurological deficits (Bederson score)” value in experiment [3] is “significantly reduced neurological deficits”.

As for “Kv2.1: R9-conjugated Kv2.1 C-terminal peptide HGSTRDQSI (SEQ ID NO:2) (also: R9 conjugated, site not given here; listed as Homo sapiens)”, the brain infarct volume result in experiment [1] is “significantly reduced”. Also, the “brain edema (swelling)” value in experiment [4] is “significantly reduced brain edema”. In experiment [2] (setting [5]), the “RGC survival relative to control” value is given as “significantly enhanced RGC survival”. Also, in experiment [3], the “neurological deficits (Bederson score)” value is given as “significantly reduced neurological deficits”.

For “iNOS: R9-conjugated iNOS C-terminal peptide LEEPKGTRL (SEQ ID NO:8), MCAO tests (also: R9 conjugated, site not given here; listed as Homo sapiens)”, in experiment [1], the brain infarct volume entry is “significantly reduced”. Also, the “brain edema (swelling)” value in experiment [4] is “significantly reduced brain edema”. In addition, the “increase in RGC survival compared to controls” value in experiment [2] (14 days postaxotomy, TAT-conjugated peptide, intraocular injection 10 mg/ml at 3 and 8 days) is listed as 2 fold. The “RGC survival relative to control” value in experiment [2] (14 days postaxotomy, TAT-conjugated peptide, intraperitoneal (IP) injections, 500 μg per injection) was “little or no effect”; in experiment [2] (14 days postaxotomy, TAT-conjugated peptide, nerve injection) it was “little or no effect”. Besides, the “neurological deficits (Bederson score)” value in experiment [3] is “significantly reduced neurological deficits”.

Consider “hPTEN: R9-conjugated human PTEN phosphatase C-terminal peptide DQHTQITKV (SEQ ID NO:9)”, for which, in experiment [1], the brain infarct volume result is “significantly reduced”. Moreover, the “RGC survival relative to control” value in experiment [2] (setting [5]) was “significantly enhanced RGC survival”. Besides, the “neurological deficits (Bederson score)” value in experiment [3] was “significantly reduced neurological deficits”.
